# Assay results from US20160201063A1, “EPIGENETIC REGULATORS OF FRATAXIN” (RANA THERAPEUTICS, INC., priority 2013, published 2016).
# How the values were obtained:
# FXN mRNA [1] = assay: Screen of epigenetic inhibitors in GM0321 normal fibroblasts, FXN RNA levels; assay type: cell-based, human; details: for fold induction at 1 µM / fold induction at 5 µM: Homo sapiens, Fibroblast, 72 h; for fold induction at 1 µM: read-out: FXN mRNA fold change, 321B 1 uM; for fold induction at 5 µM: read-out: FXN mRNA fold change, 321B 5 uM
# FXN mRNA [2] = assay: Screen of library of eighty epigenetic inhibitors in GM03816 FRDA diseased fibroblasts, FXN mRNA fold change; assay type: cell-based, human; details: for fold induction at 1 µM / fold induction at 5 µM: Homo sapiens, Fibroblast, 72 h; for fold induction at 1 µM: read-out: 3816 1 uM (FXN mRNA fold change); for fold induction at 5 µM: read-out: 3816 5 uM (FXN mRNA fold change)
# Protocol: FXN RNA levels are indicated on the y-axis and the inhibitors used at both 1 μM and 5 μM are shown on the x-axis.
# A screen of a library of eighty epigenetic inhibitors (Cayman Chemical) was performed in GM03816 FRDA fibroblasts to identify epigenetic regulators that upregulate FXN expression.
# [3] = GM0321 normal fibroblasts, 1 uM inhibitor, 3 days of treatment
# [4] = GM0321 normal fibroblasts, 5 uM inhibitor, 3 days of treatment
# [5] = GM03816 FRDA diseased fibroblasts, 1 uM inhibitor, 3 days of treatment
# [6] = GM03816 FRDA diseased fibroblasts, 5 uM inhibitor, 3 days of treatment
Compound,"FXN mRNA fold change, 321B 1 uM (FXN mRNA [1]; [3])","FXN mRNA fold change, 321B 5 uM (FXN mRNA [1]; [4])",3816 1 uM (FXN mRNA fold change) (FXN mRNA [2]; [5]),3816 5 uM (FXN mRNA fold change) (FXN mRNA [2]; [6]),fold induction at 1 µM (FXN mRNA [1]; [3]),fold induction at 5 µM (FXN mRNA [1]; [4]),fold induction at 1 µM (FXN mRNA [2]; [5]),fold induction at 5 µM (FXN mRNA [2]; [6]),also measured
O=C(CCCCCCC(=O)Nc1ccccc1)NO [SAHA],0.4256,0.1923,0.4857,0.0916,,,,,
O=C(O)C(Cc1c[nH]c2ccccc12)N1C(=O)c2ccccc2C1=O (centres unmarked) [RG-108],,0.6222,1.001,0.8966,,,,,
O=C(Nc1ccc(Cl)cc1)C1CCCN(C(=O)c2cc(C(F)(F)F)cc(C(F)(F)F)c2)C1 (centres unmarked) [CCG-100602],0.8325,0.9592,1.147,1.213,,,,,
C=C(C)[C@@H](CC=C(C)C)C[C@@]12C[C@@H](CC=C(C)C)C(C)(C)[C@@](CC=C(C)C)(C(=O)C(C(=O)c3ccc(O)c(O)c3)=C1O)C2=O [Garcinol],,,,,0.63,1.33,1.01,1.09,
O=C(/C=C/c1cccc(C(=O)NO)c1)NO [CBHA],0.7208,0.4875,0.4678,0.1327,,,,,
"CCOC(=O)c1ccnc(C(=O)OCC)c1 [2,4-DPD]",0.877,0.7372,1.179,0.9456,,,,,
CCOC(=O)CCNc1cc(N2CCc3ccccc3CC2)nc(-c2cccnc2)n1.Cl [GSK-J5 (hydrochloride)],0.8597,0.9741,1.183,0.9451,,,,,
UNC0321 (trifluoroacetate salt),0.7517,0.605,0.9323,0.8929,,,,,
O=c1oc2c(O)c(O)cc3c(=O)oc4c(O)c(O)cc1c4c23 [Ellagic Acid],,,,,0.675,0.248,0.788,0.189,
CCCC(=O)[O-].[Na+] [Sodium Butyrate],,,,,,,,,fold induction at 1 µM (FXN mRNA [1]): 1.06; fold induction at 5 µM (FXN mRNA [1]): 0.707; fold induction at 1 µM (FXN mRNA [2]): 1.03; fold induction at 5 µM (FXN mRNA [2]): 1.16
CC(C)(C)OC(=O)Nc1ccc(-c2cc(C(=O)NCCCCCCC(=O)NO)no2)cc1 [CAY10603],0.3592,,0.5205,0.07004,,,,,
NC(=O)c1ccc(I)c([N+](=O)[O-])c1 [BSI-201],,,,,1.03,0.985,1.13,0.844,
COc1ccc(Cn2ccc3ccc(C(=O)NO)cc32)cc1 [PCI 34051],0.9743,1.306,1.084,1.209,,,,,
O=c1ncccn1[C@@H]1O[C@H](CO)[C@@H](O)[C@H]1O [Zebularine],,,,,1.07,1.03,1.07,1.09,
Nc1nc(OCc2cc(Br)cs2)c2[nH]cnc2n1 [Lomeguatrib],,,,,1.05,1.28,,,
CCCC(CCC)C(=O)O [Valproic acid],,,,,1.26,0.847,0.901,1,
N=C1NC(=O)/C(=C/c2ccc(O)cc2)S1 [Mirin],,,,,,,,,fold induction at 1 µM (FXN mRNA [1]): 1.08; fold induction at 5 µM (FXN mRNA [1]): 1.31; fold induction at 1 µM (FXN mRNA [2]): 1.06; fold induction at 5 µM (FXN mRNA [2]): 0.679
"Nc1ncnc2c1ncn2[C@@H]1O[C@H](C[C@@H](N)CC[C@H](N)C(=O)O)[C@@H](O)[C@H]1O [Sinefungin, reference compound]",,,,,0.551,0.821,0.895,0.862,
COc1ccccc1S(=O)(=O)Nc1ccc2c(c1)CN(C)C(=O)N2 [PFI-1],0.9577,0.9071,0.9175,0.923,,,,,
Oc1cc(O)cc(/C=C/c2ccc(O)c(O)c2)c1 [Picetannol],0.5008,0.538,0.7867,0.5435,,,,,
CCCCc1nc2cc(/C=C/C(=O)NO)ccc2n1CCN(CC)CC [SB 939],,,,,0.435,0.465,0.298,0.315,
